{"source": "patent US20170096636A1", "about": "“METHODS AND COMPOUNDS FOR PHOTOTHERAPY WITH CHALCOGENORHODAMINE PHOTOSENSITIZERS” (Wake Forest University Health Sciences, priority 2014, published 2017)", "key": {"resting T cells": {"test_system": "resting T cells", "assay": "Dark toxicity: bioenergetics (O2 consumption rate) of resting T cells", "conditions": "5.0×10^−7 M"}, "[1]": {"test_system": "immunomagnetically-selected CD3+ cells", "assay": "Phototoxicity: cell survival by FACS (Annexin 5/7AAD) 18 hours after PD", "format": "cell-based", "conditions": "5.0×10^−8 M, 5 J/cm^2 light, FACS 18 hours after PD", "description": "(§1) Selective phototoxicity of Chalcogenorhodamine Photosensitizers. Based on the rapid extrusion kinetics and low potential for toxicity in resting cells, we selected four amide-containing half-julolidine analogues for further analysis (2-S—Cl, 2-Se—Cl, 4-S—Cl, and 4-Se—Cl). These photosensitizers are associated with high singlet oxygen quantum yields (Table I). As a result, very low concentrations of these agents are required for phototherapy. For all PD experiments, immunomagnetically-selected CD3^+ cells were suspended in a photosensitizer-rich media of 5.0×10^−8 M for 20 minutes followed by 30 minutes in a photosensitizer-free media. Cells were then exposed to 5 J/cm^2 of light followed by real-time measurement of OCR and ECAR. […] We next evaluated the effects of PD on cell survival. For these experiments, FACS analysis was performed 18 hours after PD. Cell survival was identified by failure to bind Annexin 5 and 7AAD, and percent survival was calculated as the difference in the absolute number of cells between PD and control (non-PD samples) samples."}, "[2]": {"test_system": "immunomagnetically-selected CD3+ cells", "assay": "Phototoxicity: photodepletion (PD) of CD3+ cells, real-time OCR", "format": "cell-based", "conditions": "5.0×10^−8 M 20 minutes, 30 minutes photosensitizer-free, 5 J/cm^2 light", "description": "as §1"}, "[3]": {"test_system": "activated T cells (CD25+)", "assay": "PD of activated T cells after SEB stimulation: bioenergetics and survival", "format": "cell-based", "conditions": "5×10^−8 M, 5 J/cm^2", "method": "To evaluate the differential effects of PD on bioenergetics of activated and resting T cells, immunomagnetically-selected CD25^+ and CD25^− T cells were isolated (>95% purity) after SEB stimulation. PD was then performed, and bioenergetics were measured within 1 hour. The percent of basal OCR devoted to ATP production was determined by comparing basal OCR to baseline OCR (after oligomycin injection). […] Upon exposure to light, the higher concentration of 2-Se—Cl selectively disrupted OXPHOS in activated T cells. To determine whether the selective impedance of basal ATP production affected cell survival, we performed FACS analysis 18 hours after PD (FIG. 5C)."}, "[4]": {"assay": "Quantum yield for generation of singlet oxygen, time-resolved 1O2 phosphorescence", "format": "physicochemical", "conditions": "air-saturated MeOH, TMR-Se as reference"}, "PBMCs": {"test_system": "PBMCs", "format": "cell-based", "conditions": "SEB 50 ng/mL 72 hours, CFSE"}, "HUT-78 cells": {"test_system": "HUT-78 cells", "assay": "Cellular uptake and extrusion of photosensitizer (flow cytometry MFI)", "format": "cell-based", "conditions": "±SE; for Uptake MFI: 2.5 × 10^−7 M photosensitizer, 20 minutes exposure; for % Extrusion: percent change in MFI after 18 hour extrusion period, 2.5 × 10^−7 M", "method": "Cellular Uptake and Extrusion of Chalcogenorhodamine Photosensitizers. […] Cellular uptake of the chalcogenorhodamine photosensitizers was measured after a 20 minute exposure to 2.5×10^−7 M photosensitizer in malignant T cells (HUT-78 cells, Table 2). Transmembrane movement of the photosensitizers in the secretory direction (basolateral to apical) was measured after an 18-h extrusion period. As described above, the Se-containing molecules fluoresced at a lower intensity relative to the S-containing molecules. […] Overall, the PF6^− salts were more slowly extruded from cells relative to the chloride salts of the amide, with a greater difference in the extrusion kinetics noted between the thiorhodamine PF6 salts compared to the selenorhodamine chloride salts."}, "[5]": {"conditions": "n-octanol / PBS pH 7.4, shake flask"}, "[6]": {"assay": "Fluorescence quantum yield in MeOH", "format": "physicochemical", "conditions": "quantum yield for fluorescence in MeOH"}, "physchem": {"assay": "physchem", "conditions": "n-octanol/phosphate buffered saline, pH 7.4"}, "P-gp": {"biological_target": "P-gp (Homo sapiens, UniProt P08183)", "sequence (P08183 whole entry)": "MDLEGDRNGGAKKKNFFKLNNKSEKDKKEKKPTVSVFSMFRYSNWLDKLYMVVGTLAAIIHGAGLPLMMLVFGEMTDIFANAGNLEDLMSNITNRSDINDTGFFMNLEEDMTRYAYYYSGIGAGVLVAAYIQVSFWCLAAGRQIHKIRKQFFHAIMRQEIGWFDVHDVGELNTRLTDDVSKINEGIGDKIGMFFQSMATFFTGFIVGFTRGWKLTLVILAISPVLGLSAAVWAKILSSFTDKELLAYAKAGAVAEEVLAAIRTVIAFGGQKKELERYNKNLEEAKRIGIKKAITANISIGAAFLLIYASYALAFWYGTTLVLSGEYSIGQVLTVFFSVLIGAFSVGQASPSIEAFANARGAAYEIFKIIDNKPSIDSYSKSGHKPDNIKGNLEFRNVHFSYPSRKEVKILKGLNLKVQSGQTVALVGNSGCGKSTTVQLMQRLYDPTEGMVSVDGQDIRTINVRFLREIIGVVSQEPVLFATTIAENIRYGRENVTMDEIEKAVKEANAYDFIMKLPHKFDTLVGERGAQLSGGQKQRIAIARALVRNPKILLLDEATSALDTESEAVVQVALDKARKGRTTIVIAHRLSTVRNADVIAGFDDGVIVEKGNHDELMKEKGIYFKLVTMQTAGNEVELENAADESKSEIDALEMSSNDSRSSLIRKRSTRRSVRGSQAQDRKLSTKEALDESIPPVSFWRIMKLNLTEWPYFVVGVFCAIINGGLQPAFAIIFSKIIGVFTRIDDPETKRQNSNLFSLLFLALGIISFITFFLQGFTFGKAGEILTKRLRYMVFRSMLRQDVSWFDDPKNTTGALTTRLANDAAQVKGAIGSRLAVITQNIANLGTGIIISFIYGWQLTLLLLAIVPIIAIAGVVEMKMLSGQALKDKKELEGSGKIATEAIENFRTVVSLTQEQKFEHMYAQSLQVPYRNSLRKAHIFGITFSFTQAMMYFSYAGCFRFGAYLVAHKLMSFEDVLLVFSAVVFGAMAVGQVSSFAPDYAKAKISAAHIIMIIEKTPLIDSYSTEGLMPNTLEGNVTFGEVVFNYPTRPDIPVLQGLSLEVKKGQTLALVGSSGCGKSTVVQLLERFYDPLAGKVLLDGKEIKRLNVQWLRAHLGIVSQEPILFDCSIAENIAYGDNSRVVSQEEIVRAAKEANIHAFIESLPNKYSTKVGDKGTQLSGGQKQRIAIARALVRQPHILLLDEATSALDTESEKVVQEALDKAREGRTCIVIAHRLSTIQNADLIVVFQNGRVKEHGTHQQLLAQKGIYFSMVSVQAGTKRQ", "conditions": "cited from earlier work"}, "MDCK-MDR1 cells": {"test_system": "MDCK-MDR1 cells", "conditions": "cited from earlier work"}, "cytochrome c oxidase": {"test_system": "cytochrome c oxidase", "conditions": "whole cells, irradiation; cited from earlier work"}, "[7]": {"conditions": "reference value; cited from earlier work"}}, "note": "“Also recorded” adds a separate entry of the source."}
{"smiles": "CN1CCC(C)(C)c2cc3c(-c4ccc(C(=O)N5CCCCC5)s4)c4ccc(=[N+](C)C)cc-4[se]c3cc21.[Cl-]", "note": "[2-Se—Cl, N-methyl-N-(1,4,4-trimethyl-6-(5-(piperidine-1-carbonyl)thiophen-2-yl)-3,4-dihydro-1H-selenochromeno[3,2-g]quinolin-9(2H)-ylidene)methanaminium Chloride]", "values": [{"measurement": "dark toxicity", "setting": "resting T cells", "value": "not associated with any significant dark toxicity; also recorded: minimal toxicity"}, {"measurement": "cell death after PD", "setting": "[1]", "value": "minimal cell death"}, {"measurement": "effect of PD on basal OCR", "setting": "[2]", "value": "did not significantly impede the basal OCR"}, {"measurement": "aerobic glycolysis after PD", "setting": "resting T cells (CD25−)", "value": "not affecting aerobic glycolysis of either population"}, {"measurement": "cell death in resting T cell population", "setting": "resting T cells (CD25−)", "value": "minimal to no cell death"}, {"measurement": "activated T cells eliminated from culture", "setting": "[3]; FACS 18 hours after PD", "value": "Greater than 90%"}, {"measurement": "aerobic glycolysis after PD", "setting": "[3]; activated T cells", "value": "not affecting aerobic glycolysis of either population"}, {"measurement": "OXPHOS associated ATP production after PD", "setting": "[3]; activated T cells, within 1 hour", "value": "significantly impeded"}, {"measurement": "Φ(^1O2), MeOH", "setting": "[4]", "value": "0.48±0.03"}, {"measurement": "response to TSST-1 after PD", "setting": "PBMCs; challenge with TSST-1, 6 days", "value": "a robust response was observed"}, {"measurement": "proliferation in response to SEB after PD", "setting": "PBMCs; rechallenge with SEB, 6 days", "value": "no proliferation occurred"}, {"measurement": "Uptake MFI", "setting": "HUT-78 cells", "value": 6536}, {"measurement": "% Extrusion", "setting": "HUT-78 cells", "value": "92.17 (±1.09) %"}, {"measurement": "log P", "setting": "[5]", "value": "2.23 ± 0.04"}, {"measurement": "ΦF, MeOH", "setting": "[6]", "value": "0.009 ± 0.001"}]}
{"smiles": "CCN(CC)C(=O)c1ccc(-c2c3ccc(N(C)C)cc3[se+]c3c4c5c(cc23)CCCN5CCC4)s1.[Cl-]", "note": "[8-Se—Cl, 12-(Dimethylamino)-2,3,6,7-tetrahydro-9-(5-(diethylcarbamoyl)-thiophen-2-yl)-1H,5H-selenoxantheno[2,3,4-ij]quinolizin-14-ium Chloride]", "values": [{"measurement": "Uptake MFI", "setting": "HUT-78 cells", "value": 19365}, {"measurement": "% Extrusion", "setting": "HUT-78 cells", "value": "83.05 (±1.78) %"}, {"measurement": "melting point", "value": "150 to 152", "unit": "°C"}, {"measurement": "logP", "setting": "physchem", "value": "2.87 ± 0.01"}]}
{"smiles": "CCN(CC)C(=O)c1ccc(-c2c3ccc(N(C)C)cc3[s+]c3c4c5c(cc23)CCCN5CCC4)s1.F[P-](F)(F)(F)(F)F", "note": "[8-S—PF6]", "values": [{"measurement": "Uptake MFI", "setting": "HUT-78 cells", "value": 128000}, {"measurement": "% Extrusion", "setting": "HUT-78 cells", "value": "79.40 (±1.56) %"}, {"measurement": "effect on ATPase activity in P-gp", "setting": "P-gp", "value": "stimulate ATPase activity"}, {"measurement": "log P", "setting": "[5]", "value": 1.4}, {"measurement": "PBA", "setting": "MDCK-MDR1 cells", "value": 21, "unit": "×10⁻⁶ cm/s"}]}
{"smiles": "CN(C)c1ccc2c(-c3ccccc3)c3ccc(=[N+](C)C)cc-3[se]c2c1.[Cl-]", "note": "[TMR-Se]", "values": [{"measurement": "cytochrome c oxidase activity in irradiated treated cells", "setting": "cytochrome c oxidase", "value": "light fluence-dependent inhibition of cytochrome c oxidase activity"}, {"measurement": "Φ(^1O2) of reference", "setting": "[7]", "value": 0.87}]}
